PMC10902301, “Interactions between the protein barnase and co-solutes studied by NMR” (Communications Chemistry, 2024)
Values joined by “and” are separate entries in the source; they are usually repeats but may differ in a detail not shown here. Identical values can stand only once. Counter-ions that a name gives are not always drawn.

Experiments:
barnase [1] = biological target: T1, barnase (Bacillus amyloliquefaciens, UniProt P00648, H149A); conditions: for binding to barnase (in words): from curvature of chemical shift profiles; for mL for amide protons (1HN), mean ± standard deviation over residues: single co-solute titration up to 1 M, 5 mM acetate pH 5.8
T1 sequence (P00648 48-157 H149A): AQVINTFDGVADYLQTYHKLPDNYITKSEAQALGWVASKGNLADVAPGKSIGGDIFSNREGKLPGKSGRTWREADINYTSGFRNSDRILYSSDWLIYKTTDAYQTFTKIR
Protocol: (§1) For each titration point, protein 2D peak positions were measured and loaded into a database. […] We hypothesized that the hyperbolic parts indicate direct binding of the co-solute to the protein, while the linear parts represent indirect effects on the protein chemical shifts caused by interactions of the co-solute with the solvent, which thus leads to altered protein solvation. Linear changes in shift could also arise from co-solute-induced conformational changes in the protein. […] We therefore fitted the data to a sum of two equations: a hyperbolic curve plus a linear change. Fitting to the hyperbolic curve gives a resultant binding affinity, which can be tabulated as either a dissociation constant Kd (with units of concentration) or an association constant Ka (with units of reciprocal concentration). […] Thus in the analysis below, we use Ka when examining binding to the protein surface. We note that the linear change is in fact a binding curve with very weak affinity, and will therefore start to curve at some point. Based on the likely affinities, curvature is unlikely to become apparent until the co-solute reaches a concentration of several M.
(§2) For fitting shift changes to obtain the dissociation constant, one would normally use a quadratic equation[36]:1 Δδobs=Δδmax{([P]i+[L]i+Kd)–[([P]i+[L]i+Kd)^2−4[P]i[L]i]^1/2}/2[P]I
(§3) We have therefore used it throughout. The complete equation used here for fitting the experimental shift changes is therefore3 Δδobs=Δδmax.Li/Kd+Li+mLLi which gives three fitted values for each nucleus: Kd, Δδmax, and mL. mL is the gradient of the linear component, and gives information on the indirect effect of the co-solute on protein chemical shifts via its effect on solvent. […] We discuss later the significance of mL: for present purposes, it is an empirical parameter that describes how the co-solute affects the protein indirectly via solvent.
(§4) For these reasons, all experiments were carried out using 5 mM acetate, pH 5.8, conditions that gave reproducible peak positions while using only a very low concentration of additional solutes.
(§5) Chemical shifts of ^1HN, ^15N, and ^13C’ were measured and fitted to Eq. (3).

protein surfaces = conditions: molecular dynamics; ref Vrbka et al J Phys Chem B 2006 110:7036-7043; cited from earlier work
barnase [2] = biological target: T1, barnase; assay: biochemical; conditions: average dissociation constant Kd at thiocyanate binding region, residues 35–46, 81–86; single binding site assumed; pH 5.8
Protocol: as §1, §2, §3, §4, §5

Row | SMILES | binding to barnase (in words) (barnase [1]) | mL for amide protons (1HN), mean ± standard deviation over residues (barnase [1]) | average Ka over all nuclei (barnase [1]; osmolyte titrations, average over residues that could be fitted) | contact times with protein surfaces in water (protein surfaces) | average Ka (barnase [1]; average over binding-site residues 35–46 and 81–86, 1HN, 15N, 13C' nuclei) | Kd (barnase [2])
1 | C[N+](C)(C)[O-] [TMAO, trimethylamine N-oxide] | only very weak binding | +9.7 ± 16.9 ppb/M |  |  |  | 
2 | C[N+](C)(C)CC(=O)O [betaine, N-trimethyl glycine] | no binding | +4.3 ± 15.9 ppb/M | no evidence of any binding |  |  | 
3 | Cl [chloride, sodium chloride] | overall weaker binding | –16 ± 26 ppb/M |  | 0.1-0.8 ns |  | 
4 | CC1=N[C@H](C(=O)O)CCN1 [ectoine] | very little binding | +16.5 ± 21.3 ppb/M |  |  |  | 
5 | O=S(=O)(O)O [sulfate, sodium sulfate] |  |  |  | 0.1-0.8 ns |  | 
6 | N#CS [thiocyanate, sodium thiocyanate] |  | –51 ± 51 ppb/M |  |  | about 45 M^−1 | 22 mM and ~22 mM
